Measurements as given in ChEMBL document CHEMBL1201862, “PubChem BioAssay data set” (2004).
The source made the active and inactive calls.

Legend:
[1] = biological target: T1, E3 ubiquitin-protein ligase XIAP (Homo sapiens, UniProt P98170); test: Counter Screen using XIAP-Bir3 for Chemical Antagonists of Bir1/2 domains of IAP-family anti-apoptotic proteins. [Related pubchem assays (depositor defined):AID1018, AID1449, AID1514, AID1638, AID1749, AID1750, AID488957, AID488963]
[2] = biological target: T1, E3 ubiquitin-protein ligase XIAP; test: XIAP antagonists, biochemical, IAP family, fluorescence polarization (AID 1018); type: functional
[3] = biological target: T2, Insulin-degrading enzyme (Homo sapiens, UniProt P14735); test: activators of recombinant IDE enzyme, dose response, counter-screen for IDE activator project, biochemical, fluorescence polarization (AID 588681)
T2 sequence (P14735 whole entry): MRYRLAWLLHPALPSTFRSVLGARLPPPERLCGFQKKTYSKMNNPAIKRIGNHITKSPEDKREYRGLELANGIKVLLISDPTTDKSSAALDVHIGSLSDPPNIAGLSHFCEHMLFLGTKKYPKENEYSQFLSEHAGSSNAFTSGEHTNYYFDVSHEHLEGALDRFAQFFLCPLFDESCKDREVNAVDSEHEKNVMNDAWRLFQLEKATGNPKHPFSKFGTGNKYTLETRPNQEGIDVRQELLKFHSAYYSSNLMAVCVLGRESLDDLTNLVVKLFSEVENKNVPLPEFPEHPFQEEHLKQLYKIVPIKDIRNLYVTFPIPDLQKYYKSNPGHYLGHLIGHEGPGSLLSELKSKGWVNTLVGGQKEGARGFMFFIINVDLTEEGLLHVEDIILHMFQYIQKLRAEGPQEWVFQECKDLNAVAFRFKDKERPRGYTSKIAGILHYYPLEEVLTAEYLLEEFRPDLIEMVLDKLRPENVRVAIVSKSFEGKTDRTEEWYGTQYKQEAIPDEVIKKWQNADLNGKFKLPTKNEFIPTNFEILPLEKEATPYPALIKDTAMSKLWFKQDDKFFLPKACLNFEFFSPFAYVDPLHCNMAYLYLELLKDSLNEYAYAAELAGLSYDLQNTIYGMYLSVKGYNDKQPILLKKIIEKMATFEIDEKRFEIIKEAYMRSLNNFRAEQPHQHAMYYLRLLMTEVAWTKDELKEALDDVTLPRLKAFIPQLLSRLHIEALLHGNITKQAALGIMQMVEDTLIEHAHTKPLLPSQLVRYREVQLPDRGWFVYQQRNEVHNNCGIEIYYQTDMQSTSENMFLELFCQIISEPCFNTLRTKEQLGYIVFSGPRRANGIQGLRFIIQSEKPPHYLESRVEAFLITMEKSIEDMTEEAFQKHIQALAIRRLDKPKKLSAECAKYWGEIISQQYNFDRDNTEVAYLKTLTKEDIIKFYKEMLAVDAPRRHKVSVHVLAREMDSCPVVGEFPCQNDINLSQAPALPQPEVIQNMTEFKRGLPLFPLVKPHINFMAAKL

[4] = tested on: Streptococcus; test: Group A Streptococcus viability loss, dose response, counter-screen for streptokinase expression inhibitor project, luminescence, BacTiterGlo (AID 1915); type: functional, organism-based;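 note: potency for reduction of bacterial viability or growth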
[5] = biological target: T3, Kappa-type opioid receptor (Homo sapiens, UniProt P41145); type: functional
[6] = biological target: T2, Insulin-degrading enzyme; test: activators of endogenous IDE in HEK cells, dose response, cell-based, fluorescence polarization (AID 588439); type: functional
[7] = tested on: INS1; test: beta cell apoptosis inhibitors, cytokine rescue, dose response, luminescence, retest (AID 449756); type: functional, cell-based; settings: Rattus norvegicus;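 note: cell death triggered by IL-1 beta plus TNF-alpha plus IFN-gamma mixture; protective hits raise ATP signal compared with cytokine alone wells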
[8] = tested on: HEK293; test: optical interference in Abeta FP readout, dose response, artefact control for IDE activator project, biochemical, fluorescence polarization (AID 588442); type: functional, cell-based; settings: Homo sapiens
[9] = tested on: Streptococcus sp. 'group A'; test: growth inhibition of control SK(-) GAS strain, dose response, counter-screen for streptokinase expression inhibitor project, luminescence, kanamycin, BacTiterGlo, confirmation (AID 1900); type: functional, organism-based
[10] = biological target: Beta-galactosidase (Escherichia coli, UniProt Q8VNN2); type: functional
[11] = biological target: T4, Streptokinase A (Streptococcus pyogenes serotype M1, UniProt P10520); test: S. pyogenes streptokinase expression inhibitors, potency, dose response, plasminogen activation absorbance, OD405 (AID 1914); type: functional, Streptococcus pyogenes M1 GAS;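 note: secreted streptokinase activity via plasminogen activation per viability signal from cell pellet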
T4 sequence (P10520 whole entry): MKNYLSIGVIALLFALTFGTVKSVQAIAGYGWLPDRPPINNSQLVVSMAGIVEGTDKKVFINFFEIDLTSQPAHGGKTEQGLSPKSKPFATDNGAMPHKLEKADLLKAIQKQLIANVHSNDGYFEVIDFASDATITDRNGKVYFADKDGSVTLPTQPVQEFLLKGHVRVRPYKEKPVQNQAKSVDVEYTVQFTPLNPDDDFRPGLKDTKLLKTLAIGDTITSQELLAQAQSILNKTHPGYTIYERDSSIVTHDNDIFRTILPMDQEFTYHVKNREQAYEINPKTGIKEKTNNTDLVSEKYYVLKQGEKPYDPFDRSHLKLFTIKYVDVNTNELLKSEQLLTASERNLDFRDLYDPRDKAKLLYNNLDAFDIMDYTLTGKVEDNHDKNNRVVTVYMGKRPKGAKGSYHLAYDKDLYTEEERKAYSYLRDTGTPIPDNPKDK

[12] = biological target: T3, Kappa-type opioid receptor; type: functional; remark: listed apart in the source
[13] = tested on: HEK293; test: HEK cell cytotoxicity by LDH release, dose response, cytotoxicity control for IDE activator project, fluorescence, HEK cells (AID 588440); type: functional, cell-based; settings: Homo sapiens;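 note: cytotoxicity by LDH release measuring loss of membrane integrity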
[14] = tested on: H9c2; test: cells; type: functional, cell-based; settings: Rattus norvegicus, H9c2, Myocardium;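 note: confirmatory concentration-response retest of ultra-high-throughput screening hits for modulation of myocardial damage; cell death induced by hydrogen peroxide oxidative stress; compound pretreatment for 60 min then peroxide exposure for 2 h; potency is for protecting the cells against peroxide damage rather than for killing them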
[15] = tested on: HEK293; test: cells; type: functional, cell-based; settings: Homo sapiens
[16] = biological target: Nucleotide-binding oligomerization domain-containing protein 2 (Homo sapiens, UniProt Q9HC29); test: NOD2 signaling inhibitors, cell-based, luminescence, uHTS, HEK293 (AID 1566); type: functional
[17] = tested on: HEK293; test: NOD1 signaling inhibitors, primary screen, cell-based, luminescence, uHTS (AID 1578); type: functional; settings: Homo sapiens
[18] = tested on: HEK293; test: cells; type: functional, cell-based; settings: Homo sapiens; remark: listed apart in the source
[19] = tested on: HEK293; test: cells; type: functional, cell-based; settings: Homo sapiens; remark: listed apart in the source
[20] = tested on: HEK293; test: NOD2 signaling inhibitors in MDP-stimulated cells, cell-based, uHTS, luminescence (AID 2001); type: functional; settings: Homo sapiens
[21] = biological target: Troponin, cardiac muscle (Homo sapiens, UniProt P19429+P45379+P63316); test: Fluorescence-based biochemical high throughput dose response assay for activators of the calcium sensitivity of cardiac Regulated Thin Filaments (RTF). [Related pubchem assays (depositor defined):AID493008, AID493018, AID504382, AID504383]; type: protein-complex assay

Cc1ccc(S(=O)(=O)c2cn(CC(=O)Nc3ccccc3)c3ccc(F)cc3c2=O)cc1
IC50 [1]: > 100 µM (inactive) | IC50 [2]: > 100 µM (not active)

CCOc1cc(/C=N/Nc2cc(C)nc(-n3nc(C)cc3C)n2)ccc1O
EC50 [3]: > 54.7 µM (inactive) | EC50 [4]: 32.7 µM (active) | IC50 [5]: > 32 µM | EC50 [6]: > 54.7 µM (inactive) | AC50 [7]: 0.862 µM (active) | EC50 [8]: > 54.7 µM (inactive) | EC50 [9]: 1.67 µM (active) | EC50 [10]: > 31.5 µM (inactive) | EC50 [11]: > 150 µM (not active) | IC50 [12]: > 31.5 µM (inactive) | IC50 [13]: 32.3 µM (inactive)

Cc1nc(N2CCN(c3ccccn3)CC2)c2c(C)c(C(=O)Nc3ccccc3F)sc2n1
IC50 [14]: > 79 µM (inactive) | IC50 [15]: 5.78 µM (active) | EC50 [16]: 3.56 µM (active) | EC50 [17]: 12.4 µM (active) | IC50 [18]: 14.3 µM (active) | IC50 [19]: > 20 µM (inactive) | IC50 [20]: 5.23 µM (active)

CC(=O)Nc1cc(C(=O)NCc2ccco2)ccc1Sc1ccc(F)cc1
EC50 [21]: > 71.5 µM (inactive)
